How the values were obtained:
KIT(V559D, V654A) = biological target: T1, KIT(V559D, V654A) (Homo sapiens, UniProt P10721, V559D/V654A); assay: scanMAX Kinase panel (DiscoverX); format: binding; settings: read-out: % Cont @ 1 uM
T1 construct: purchased DiscoverX scanMAX Kinase panel
Protocol: (§1) Among the example compounds of the present invention, the enzyme (kinase) selectivity of the selected compounds of Examples 1 and 4 was measured by requesting DiscoverX. At this time, the experiment was performed using a panel for scanMAX™ Kinase. The concentration of the drug treated to the enzyme was 1 μM in DMSO, and the percentage control (% control) was determined by the method shown in Equation 1 below. (Example Compound−Positive Control)/(Negative Control−Positive control)×100 [Equation 1]

KIT(V559D) = biological target: T2, KIT(V559D) (Homo sapiens, UniProt P10721, V559D); assay: scanMAX Kinase panel (DiscoverX); format: binding; settings: read-out: % Cont @ 1 uM
T2 construct: purchased DiscoverX scanMAX Kinase panel
T2 sequence (P10721 26-976 V559D): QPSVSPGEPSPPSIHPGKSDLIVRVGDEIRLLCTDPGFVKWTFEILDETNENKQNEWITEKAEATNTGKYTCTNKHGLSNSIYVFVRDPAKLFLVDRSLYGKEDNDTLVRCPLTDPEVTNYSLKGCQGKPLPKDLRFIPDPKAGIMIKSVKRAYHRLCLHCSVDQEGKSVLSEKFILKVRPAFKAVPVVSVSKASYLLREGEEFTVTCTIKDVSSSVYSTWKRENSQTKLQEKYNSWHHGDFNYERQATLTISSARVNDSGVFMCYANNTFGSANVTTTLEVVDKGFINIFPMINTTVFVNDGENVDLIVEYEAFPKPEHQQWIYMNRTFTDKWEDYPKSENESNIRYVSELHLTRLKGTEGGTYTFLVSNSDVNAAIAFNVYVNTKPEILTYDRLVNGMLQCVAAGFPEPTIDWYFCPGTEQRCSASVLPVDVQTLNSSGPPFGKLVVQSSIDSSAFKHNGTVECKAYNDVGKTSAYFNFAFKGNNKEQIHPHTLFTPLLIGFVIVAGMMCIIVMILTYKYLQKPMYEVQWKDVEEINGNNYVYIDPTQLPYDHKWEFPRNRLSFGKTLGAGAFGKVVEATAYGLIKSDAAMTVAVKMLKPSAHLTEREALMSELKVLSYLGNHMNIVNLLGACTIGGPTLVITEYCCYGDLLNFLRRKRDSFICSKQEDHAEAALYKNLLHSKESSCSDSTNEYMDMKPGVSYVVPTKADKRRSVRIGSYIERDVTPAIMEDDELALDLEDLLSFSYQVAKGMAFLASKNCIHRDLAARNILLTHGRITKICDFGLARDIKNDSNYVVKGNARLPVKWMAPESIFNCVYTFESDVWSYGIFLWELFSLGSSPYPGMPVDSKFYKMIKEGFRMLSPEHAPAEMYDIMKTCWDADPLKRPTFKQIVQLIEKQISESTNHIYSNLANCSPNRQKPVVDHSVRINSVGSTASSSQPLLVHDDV
Protocol: as §1

ABL1-nonphosphorylated = biological target: T3, ABL1-nonphosphorylated (Homo sapiens, UniProt P00519); assay: scanMAX Kinase panel (DiscoverX); format: binding; settings: read-out: % Cont @ 1 uM
T3 construct: purchased DiscoverX scanMAX Kinase panel
Protocol: as §1

KIT(A829P) = biological target: T4, KIT(A829P) (Homo sapiens, UniProt P10721, A829P); assay: scanMAX Kinase panel (DiscoverX); format: binding; settings: read-out: % Cont @ 1 uM
T4 construct: purchased DiscoverX scanMAX Kinase panel
T4 sequence (P10721 26-976 A829P): as the sequence (P10721 26-976 V559D) above, with D534V, A804P counted along it
Protocol: as §1

[1] = biological target: T5, ABL1(M351T)-phosphorylated (Homo sapiens, UniProt P00519, M351T); assay: scanMAX Kinase panel (DiscoverX); format: binding; settings: read-out: % Cont @ 1 uM
T5 construct: purchased DiscoverX
Protocol: as §1

LRRK2 = biological target: T6, LRRK2 (Homo sapiens, UniProt Q5S007); assay: scanMAX Kinase panel (DiscoverX); format: binding; settings: read-out: % Cont @ 1 uM
T6 construct: purchased DiscoverX scanMAX Kinase panel
Protocol: as §1

TRKA = biological target: T7, TRKA (Homo sapiens, UniProt P04629); assay: scanMAX Kinase panel (DiscoverX); format: binding; settings: read-out: % Cont @ 1 uM
T7 construct: purchased DiscoverX scanMAX Kinase panel
Protocol: as §1

MAP4K5 = biological target: T8, MAP4K5 (Homo sapiens, UniProt Q9Y4K4); assay: scanMAX Kinase panel (DiscoverX); format: binding; settings: read-out: % Cont @ 1 uM
T8 construct: purchased DiscoverX scanMAX Kinase panel
Protocol: as §1

[2] = biological target: T9, ABL1(F317L)-phosphorylated (Homo sapiens, UniProt P00519, F317L); assay: scanMAX Kinase panel (DiscoverX); format: binding; settings: read-out: % Cont @ 1 uM
T9 construct: purchased DiscoverX
Protocol: as §1

PFTK1 = biological target: T10, PFTK1 (Homo sapiens, UniProt O94921); assay: scanMAX Kinase panel (DiscoverX); format: binding
T10 construct: purchased DiscoverX scanMAX Kinase panel
T10 sequence (O94921 whole entry): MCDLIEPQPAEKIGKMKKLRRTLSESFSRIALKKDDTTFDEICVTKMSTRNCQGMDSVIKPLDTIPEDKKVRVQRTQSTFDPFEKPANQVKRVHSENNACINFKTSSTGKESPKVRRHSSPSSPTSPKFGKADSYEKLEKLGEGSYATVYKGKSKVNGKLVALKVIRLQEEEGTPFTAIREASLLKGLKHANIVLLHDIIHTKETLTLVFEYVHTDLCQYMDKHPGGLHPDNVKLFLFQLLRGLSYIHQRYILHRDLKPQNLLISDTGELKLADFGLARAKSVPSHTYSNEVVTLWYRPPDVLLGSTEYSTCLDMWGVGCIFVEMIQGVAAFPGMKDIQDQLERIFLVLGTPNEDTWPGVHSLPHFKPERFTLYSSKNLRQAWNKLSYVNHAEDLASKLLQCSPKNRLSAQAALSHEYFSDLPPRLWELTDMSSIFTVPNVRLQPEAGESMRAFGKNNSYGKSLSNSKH
Protocol: as §1

[3] = biological target: T11, ABL1(E255K)-phosphorylated (Homo sapiens, UniProt P00519, E255K); assay: scanMAX Kinase panel (DiscoverX); format: binding; settings: read-out: % Cont @ 1 uM
T11 construct: purchased DiscoverX
Protocol: as §1

NEK4 = biological target: T12, NEK4 (Homo sapiens, UniProt P51957); assay: scanMAX Kinase panel (DiscoverX); format: binding; settings: read-out: % Cont @ 1 uM
T12 construct: purchased DiscoverX scanMAX Kinase panel
T12 sequence (P51957 whole entry): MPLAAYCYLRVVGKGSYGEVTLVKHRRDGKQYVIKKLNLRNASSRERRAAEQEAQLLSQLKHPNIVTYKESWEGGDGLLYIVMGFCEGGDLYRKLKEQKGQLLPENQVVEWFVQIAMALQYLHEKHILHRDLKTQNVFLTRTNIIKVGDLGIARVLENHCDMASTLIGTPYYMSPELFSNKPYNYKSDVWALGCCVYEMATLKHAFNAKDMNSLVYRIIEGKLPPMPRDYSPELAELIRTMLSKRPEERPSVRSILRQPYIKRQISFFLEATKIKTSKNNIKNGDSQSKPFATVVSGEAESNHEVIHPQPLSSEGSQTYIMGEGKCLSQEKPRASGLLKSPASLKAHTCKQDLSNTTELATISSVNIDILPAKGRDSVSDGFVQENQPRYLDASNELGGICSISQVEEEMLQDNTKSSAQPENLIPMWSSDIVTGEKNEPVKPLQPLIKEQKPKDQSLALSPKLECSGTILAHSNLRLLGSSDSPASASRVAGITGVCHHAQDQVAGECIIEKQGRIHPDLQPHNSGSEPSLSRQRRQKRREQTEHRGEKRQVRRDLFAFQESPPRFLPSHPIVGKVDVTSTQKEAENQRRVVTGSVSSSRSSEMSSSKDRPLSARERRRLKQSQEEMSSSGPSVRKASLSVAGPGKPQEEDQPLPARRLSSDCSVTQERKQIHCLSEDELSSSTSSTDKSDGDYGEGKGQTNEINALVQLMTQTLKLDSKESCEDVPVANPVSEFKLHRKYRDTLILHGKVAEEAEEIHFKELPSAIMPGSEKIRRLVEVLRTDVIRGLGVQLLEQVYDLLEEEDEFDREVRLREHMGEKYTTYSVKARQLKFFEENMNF
Protocol: as §1

PCTK2 = biological target: T13, PCTK2 (Homo sapiens, UniProt Q00537); assay: scanMAX Kinase panel (DiscoverX); format: binding; settings: read-out: % Cont @ 1 uM
T13 construct: purchased DiscoverX scanMAX Kinase panel
Protocol: as §1

GCN2(Kin.Dom.2, S808G) = biological target: T14, GCN2(Kin.Dom.2, S808G) (Homo sapiens, UniProt Q9P2K8, S808G); assay: scanMAX Kinase panel (DiscoverX); format: binding; settings: read-out: % Cont @ 1 uM
T14 construct: GCN2(Kin.Dom.2,S808G); purchased DiscoverX scanMAX Kinase panel
Protocol: as §1

EPHB6 = biological target: T15, EPHB6 (Homo sapiens, UniProt O15197); assay: scanMAX Kinase panel (DiscoverX); format: binding; settings: read-out: % Cont @ 1 uM
T15 construct: purchased DiscoverX scanMAX Kinase panel
T15 sequence (O15197 32-1021): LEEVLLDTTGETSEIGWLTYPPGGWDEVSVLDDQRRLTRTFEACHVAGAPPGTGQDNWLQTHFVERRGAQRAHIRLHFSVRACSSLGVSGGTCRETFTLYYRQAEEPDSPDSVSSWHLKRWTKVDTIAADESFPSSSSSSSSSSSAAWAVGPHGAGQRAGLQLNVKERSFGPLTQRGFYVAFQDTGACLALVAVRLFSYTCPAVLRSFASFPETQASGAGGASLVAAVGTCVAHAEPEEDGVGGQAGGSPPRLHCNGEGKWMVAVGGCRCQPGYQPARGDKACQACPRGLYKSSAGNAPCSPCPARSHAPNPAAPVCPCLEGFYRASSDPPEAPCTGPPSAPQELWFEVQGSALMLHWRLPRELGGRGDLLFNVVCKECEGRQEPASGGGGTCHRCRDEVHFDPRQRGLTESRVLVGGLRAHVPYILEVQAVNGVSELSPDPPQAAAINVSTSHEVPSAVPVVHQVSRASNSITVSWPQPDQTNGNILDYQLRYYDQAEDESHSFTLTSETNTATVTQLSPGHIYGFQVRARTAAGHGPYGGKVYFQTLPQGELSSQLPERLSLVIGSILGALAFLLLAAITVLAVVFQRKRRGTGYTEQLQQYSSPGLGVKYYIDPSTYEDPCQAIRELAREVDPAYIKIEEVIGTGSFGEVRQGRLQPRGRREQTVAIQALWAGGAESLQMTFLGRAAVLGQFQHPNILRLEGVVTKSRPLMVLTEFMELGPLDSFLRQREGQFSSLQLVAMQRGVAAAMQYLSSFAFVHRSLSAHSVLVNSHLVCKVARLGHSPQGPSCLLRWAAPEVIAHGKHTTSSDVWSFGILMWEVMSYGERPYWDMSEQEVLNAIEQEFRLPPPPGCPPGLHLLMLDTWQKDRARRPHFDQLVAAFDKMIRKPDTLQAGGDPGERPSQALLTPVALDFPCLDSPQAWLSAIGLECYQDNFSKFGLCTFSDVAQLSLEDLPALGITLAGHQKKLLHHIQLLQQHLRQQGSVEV
Protocol: as §1

CDK7 = biological target: T16, CDK7 (Homo sapiens, UniProt P50613); assay: scanMAX Kinase panel (DiscoverX); format: binding; settings: read-out: % Cont @ 1 uM
T16 construct: purchased DiscoverX scanMAX Kinase panel
Protocol: as §1

MAP3K2 = biological target: T17, MAP3K2 (Homo sapiens, UniProt Q9Y2U5); assay: scanMAX Kinase panel (DiscoverX); format: binding; settings: read-out: % Cont @ 1 uM
T17 construct: purchased DiscoverX scanMAX Kinase panel
Protocol: as §1

CSK = biological target: T18, CSK (Homo sapiens, UniProt P41240); assay: scanMAX Kinase panel (DiscoverX); format: binding
T18 construct: purchased DiscoverX scanMAX Kinase panel
T18 sequence (P41240 whole entry): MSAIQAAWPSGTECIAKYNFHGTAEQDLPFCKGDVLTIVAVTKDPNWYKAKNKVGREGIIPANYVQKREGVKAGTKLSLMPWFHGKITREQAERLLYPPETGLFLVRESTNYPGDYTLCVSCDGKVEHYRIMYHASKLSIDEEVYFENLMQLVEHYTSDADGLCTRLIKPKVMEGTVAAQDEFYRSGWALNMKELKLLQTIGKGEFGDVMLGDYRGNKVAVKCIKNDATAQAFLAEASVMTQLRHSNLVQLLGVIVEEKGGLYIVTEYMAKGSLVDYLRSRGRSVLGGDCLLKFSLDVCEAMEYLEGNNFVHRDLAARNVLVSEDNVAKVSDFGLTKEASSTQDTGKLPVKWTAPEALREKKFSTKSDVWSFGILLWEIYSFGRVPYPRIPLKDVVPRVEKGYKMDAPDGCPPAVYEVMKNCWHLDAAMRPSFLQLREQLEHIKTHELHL
Protocol: as §1

EPHA6 = biological target: T19, EPHA6 (Homo sapiens, UniProt Q9UF33); assay: scanMAX Kinase panel (DiscoverX); format: binding; settings: read-out: % Cont @ 1 uM
T19 construct: purchased DiscoverX scanMAX Kinase panel
Protocol: as §1

RET = biological target: T20, RET (Homo sapiens, UniProt P07949); assay: scanMAX Kinase panel (DiscoverX); format: binding; settings: read-out: % Cont @ 1 uM
T20 construct: purchased DiscoverX scanMAX Kinase panel
T20 sequence (P07949 29-1114): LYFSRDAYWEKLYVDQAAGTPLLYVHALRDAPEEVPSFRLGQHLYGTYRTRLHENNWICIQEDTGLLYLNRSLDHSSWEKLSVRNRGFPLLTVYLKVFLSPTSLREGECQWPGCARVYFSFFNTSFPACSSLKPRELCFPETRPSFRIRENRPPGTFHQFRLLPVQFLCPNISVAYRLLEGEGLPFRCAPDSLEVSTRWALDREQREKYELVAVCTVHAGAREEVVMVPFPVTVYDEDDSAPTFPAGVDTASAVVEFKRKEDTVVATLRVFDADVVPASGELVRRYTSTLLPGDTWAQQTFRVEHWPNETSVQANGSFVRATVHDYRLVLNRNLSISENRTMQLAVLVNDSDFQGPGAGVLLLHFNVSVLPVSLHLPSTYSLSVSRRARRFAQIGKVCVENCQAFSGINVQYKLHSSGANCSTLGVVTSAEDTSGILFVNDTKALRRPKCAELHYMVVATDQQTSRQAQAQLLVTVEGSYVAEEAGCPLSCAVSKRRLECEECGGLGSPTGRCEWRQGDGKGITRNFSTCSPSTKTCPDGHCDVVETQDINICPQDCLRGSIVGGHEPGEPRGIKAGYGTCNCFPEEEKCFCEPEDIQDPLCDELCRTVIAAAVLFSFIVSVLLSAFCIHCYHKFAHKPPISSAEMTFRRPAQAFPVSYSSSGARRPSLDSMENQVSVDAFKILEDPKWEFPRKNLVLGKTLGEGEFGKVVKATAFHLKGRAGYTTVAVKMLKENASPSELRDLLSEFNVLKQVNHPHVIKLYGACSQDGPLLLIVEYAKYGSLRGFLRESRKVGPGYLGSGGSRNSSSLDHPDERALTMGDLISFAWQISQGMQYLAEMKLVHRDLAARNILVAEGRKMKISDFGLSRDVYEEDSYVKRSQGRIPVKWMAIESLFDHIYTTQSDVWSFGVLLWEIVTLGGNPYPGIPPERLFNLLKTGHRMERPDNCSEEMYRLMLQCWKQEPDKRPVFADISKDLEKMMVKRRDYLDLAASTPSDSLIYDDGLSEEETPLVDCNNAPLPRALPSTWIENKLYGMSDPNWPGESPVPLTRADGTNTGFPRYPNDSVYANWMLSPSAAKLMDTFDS
Protocol: as §1

ERBB4 = biological target: T21, ERBB4 (Homo sapiens, UniProt Q15303); assay: scanMAX Kinase panel (DiscoverX); format: binding; settings: read-out: % Cont @ 1 uM
T21 construct: purchased DiscoverX scanMAX Kinase panel
Protocol: as §1

T315I-Bcr-Abl (Ba/F3) = assay: Ba/F3 cell proliferation inhibition; format: cell-based; settings: BaF3; 72 hours, Cell Counting Kit-8
Summary of the method: (§2)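 GI50 derived from CCK-8 absorbance at 450 nm (2 h development), expressed relative to DMSO vehicle. Cells (parental or T315I-Bcr-Abl Ba/F3, 1×10^4/well) received nine threefold-diluted concentrations, final 0 to 10 μM, for 72 h at 37 °C.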

Parental (Ba/F3) = assay: Ba/F3 cell proliferation inhibition; format: cell-based; settings: BaF3; 72 hours, Cell Counting Kit-8
Summary of the method: as §2

[4] = oral pharmacokinetic test; format: in vivo, ICR mice; settings: ICR, mouse, plasma, 10 mg/kg, 10 mg/Kg PO
Protocol: To evaluate the pharmacokinetic properties in vivo, oral pharmacokinetic test was performed with the compounds of Comparative Examples 1 and 4 and Examples 1 and 4 using mice and rats, and the PK parameters are shown in Table 10.
ICR mice (6-7 weeks old) and SD rats (6-7 weeks old) were used for the test. The fasted group was fasted about 16 hours before oral administration, and the fed group was fasted about 4 hours before oral administration. The test drug for oral administration was used by dissolving the drug in a vehicle at a concentration of 1 mg/mL for use, and blood samples were collected (time point: 0.25, 0.5, 1, 2, 4, 8, 12, 24, 32, n=3) from the heart (mouse, 500 μL/time point) or jugular vein (rat, 120 μL/time point). Blood was centrifuged at 12,000 G at 4° C. for 2 minutes to separate plasma, and stored at −80° C. until analysis. • Vehicle A (NMP:PEG400=5:95) • Vehicle B (0.5% methyl cellulose) 6-2. Sampling and Pretreatment
To 20 μl of plasma, 180 μl of acetonitrile (including internal standard) was added. The mixture was vortexed and centrifuged for 5 minutes at 15,000 rpm at 4° C. The supernatant obtained after centrifugation was analyzed by LC-MS/MS.
PK parameters were calculated with a non-compartmental analysis model using Phoenix WinNonlin 6.4 version (Pharsight, USA) program.

[5] = vehicle B (0.5% methyl cellulose)

T1 sequence (P10721 26-976 V559D/V654A): as the sequence (P10721 26-976 V559D) above, with V629A counted along it

In the case of Cc1cn(-c2cc(NC(=O)c3cc(C#Cc4cnc5c(Nc6cnn(C)c6)cccn45)c(C)cc3F)cc(C(F)(F)F)c2)cn1 [Example 4, 2-fluoro-4-methyl-N-(3-(4-methyl-1H-imidazol-1-yl)-5-(trifluoromethyl)phenyl)-5-((8-((1-methyl-1H-pyrazol-4-yl)amino)imidazo[1,2-a]pyridin-3-yl)ethynyl)benzamide], the remaining binding at 1 µM (KIT(V559D, V654A)) is reported as 12%, the remaining binding at 1 µM (KIT(V559D)) is reported as 0.25% and the remaining binding at 1 µM (ABL1-nonphosphorylated) is reported as 5.6%. For the same molecule, the percent of control binding at 1 µM (KIT(A829P)) was 2%, the remaining binding at 1 µM [1] was 10% and the remaining binding at 1 µM (LRRK2) was 92%. The remaining binding at 1 µM (TRKA) was 2.6%, the remaining binding at 1 µM (MAP4K5) was 38% and the remaining binding at 1 µM [2] was 1.2%. The “% Cont @ 1 uM” value (PFTK1) was 94%, the remaining binding at 1 µM [3] was 12% and the remaining binding at 1 µM (NEK4) was 90%. It also gave a remaining binding at 1 µM (PCTK2) of 85%, a remaining binding at 1 µM (GCN2(Kin.Dom.2, S808G)) of 64% and a remaining binding at 1 µM (EPHB6) of 0%. The remaining binding at 1 µM (CDK7) was 71%, the remaining binding at 1 µM (MAP3K2) was 87% and the “% Cont @ 1 uM” value (CSK) was 0.8%. For the same molecule, the remaining binding at 1 µM (EPHA6) was 25%, the remaining binding at 1 µM (RET) was 0.2% and the remaining binding at 1 µM (ERBB4) was 46%. It also gave a GI50 (T315I-Bcr-Abl (Ba/F3)) of under 50 nM, a GI50 (Parental (Ba/F3)) of over 5000 nM and an AUC(0-t) [4, 5] of 30400 ng·h/mL. For the same molecule, the Cmax [4, 5] was 3360 ng/mL and the half-life [4, 5] was 2.1 h.
In the case of Cc1cn(-c2cc(NC(=O)c3cc(C#Cc4cnc5c(Nc6cnn(C)c6)cccn45)c(C)cc3F)cc(C(C)(C)C#N)c2)cn1 [Example 1, N-(3-(2-cyanopropane-2-yl)-5-(4-methyl-1H-imidazol-1-yl)phenyl)-2-fluoro-4-methyl-5-((8-((1-methyl-1H-pyrazol-4-yl)amino)imidazo[1,2-a]pyridin-3-yl)ethynyl)benzamide], the remaining binding at 1 µM (KIT(V559D, V654A)) is reported as 2.9%, the remaining binding at 1 µM (KIT(V559D)) is reported as 0% and the remaining binding at 1 µM (ABL1-nonphosphorylated) is reported as 1.9%. The percent of control binding at 1 µM (KIT(A829P)) was 1.1%, the remaining binding at 1 µM [1] was 0.25% and the remaining binding at 1 µM (LRRK2) was 27%. For the same molecule, the remaining binding at 1 µM (TRKA) was 0.6%, the remaining binding at 1 µM (MAP4K5) was 0.95% and the remaining binding at 1 µM [2] was 0%. For the same molecule, the “% Cont @ 1 uM” value (PFTK1) was 8.3%, the remaining binding at 1 µM [3] was 0.9% and the remaining binding at 1 µM (NEK4) was 28%. It also gave a remaining binding at 1 µM (PCTK2) of 23%, a remaining binding at 1 µM (GCN2(Kin.Dom.2, S808G)) of 17% and a remaining binding at 1 µM (EPHB6) of 0%. For the same molecule, the remaining binding at 1 µM (CDK7) was 4.7%, the remaining binding at 1 µM (MAP3K2) was 34% and the “% Cont @ 1 uM” value (CSK) was 0.3%. It also gave a remaining binding at 1 µM (EPHA6) of 16%, a remaining binding at 1 µM (RET) of 0% and a remaining binding at 1 µM (ERBB4) of 18%. For the same molecule, the GI50 (T315I-Bcr-Abl (Ba/F3)) was under 50 nM, the GI50 (Parental (Ba/F3)) was over 5000 nM and the AUC(0-t) ([4]; vehicle A (NMP:PEG400=5:95)) was 138000 ng·h/mL. It also gave a Cmax ([4]; vehicle A (NMP:PEG400=5:95)) of 8570 ng/mL, a half-life ([4]; vehicle A (NMP:PEG400=5:95)) of 2.5 h and an AUC(0-t) [4, 5] of 80300 ng·h/mL. It also gave a Cmax [4, 5] of 10000 ng/mL and a half-life [4, 5] of 2.4 h.

— patent US12673945B2, “3-((8-((1H-pyrazol-4-yl)amino)imidazo[1,2-a]pyridin-3-yl)ethinyl)-n-phenylbenzamide derivative, method for preparing same, and pharmaceutical composition containing same as active ingredient for prevention or treatment of cancer” (DAEGU-GYEONGBUK MEDICAL INNOVATION FOUNDATION, priority 2020, dated 2026)
